From PubChem BioAssay (NCI)
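Results reflect a 48-hour exposure of cells in 96-well plates to compound at five concentrations. TGI marks complete inhibition of growth.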

Assays:
Experiment in all cases: NCI anticancer screen, dose series, 48 h
SF-539 CNS = tested on: SF-539 CNS
SNB-78 CNS = tested on: SNB-78 CNS
SK-MEL-2 melanoma = tested on: SK-MEL-2 melanoma
LOX IMVI melanoma = tested on: LOX IMVI melanoma
DMS 273 small cell lung = tested on: DMS 273 small cell lung
HOP-62 NSCLC = tested on: HOP-62 NSCLC
UACC-62 melanoma = tested on: UACC-62 melanoma
SF-268 CNS = tested on: SF-268 CNS
OVCAR-4 ovarian = tested on: OVCAR-4 ovarian
UACC-257 melanoma = tested on: UACC-257 melanoma
TK-10 renal = tested on: TK-10 renal
MOLT-4 leukemia = tested on: MOLT-4 leukemia
IGROV1 ovarian = tested on: IGROV1 ovarian
CAKI-1 renal = tested on: CAKI-1 renal
NCI-H522 lung = tested on: NCI-H522 lung
ACHN renal = tested on: ACHN renal
SNB-75 CNS = tested on: SNB-75 CNS
HCT-116 colon = tested on: HCT-116 colon
RXF 393 renal = tested on: RXF 393 renal
HT29 colon = tested on: HT29 colon
KM20L2 colon = tested on: KM20L2 colon
LXFL 529 NSCLC = tested on: LXFL 529 NSCLC
OVCAR-5 ovarian = tested on: OVCAR-5 ovarian
EKVX NSCLC = tested on: EKVX NSCLC
KM12 colon = tested on: KM12 colon
NCI-H226 lung = tested on: NCI-H226 lung
SNB-19 CNS = tested on: SNB-19 CNS
A498 renal = tested on: A498 renal
786-0 renal = tested on: 786-0 renal
SK-MEL-28 melanoma = tested on: SK-MEL-28 melanoma
SW-620 colon = tested on: SW-620 colon
XF 498 CNS = tested on: XF 498 CNS
U251 CNS = tested on: U251 CNS
HOP-92 NSCLC = tested on: HOP-92 NSCLC
COLO 205 colon = tested on: COLO 205 colon
DMS 114 small cell lung = tested on: DMS 114 small cell lung
SK-MEL-5 melanoma = tested on: SK-MEL-5 melanoma
SR leukemia = tested on: SR leukemia
UO-31 renal = tested on: UO-31 renal
SF-295 CNS = tested on: SF-295 CNS
RPMI-8226 leukemia = tested on: RPMI-8226 leukemia
SK-OV-3 ovarian = tested on: SK-OV-3 ovarian
OVCAR-8 ovarian = tested on: OVCAR-8 ovarian
OVCAR-3 ovarian = tested on: OVCAR-3 ovarian
HOP-18 NSCLC = tested on: HOP-18 NSCLC
NCI-H460 lung = tested on: NCI-H460 lung
MALME-3M melanoma = tested on: MALME-3M melanoma
NCI-H23 lung = tested on: NCI-H23 lung
A549 NSCLC = tested on: A549 NSCLC
DLD-1 colon = tested on: DLD-1 colon
M14 melanoma = tested on: M14 melanoma
M19-MEL melanoma = tested on: M19-MEL melanoma
SN12C renal = tested on: SN12C renal

## CC(=O)OC1C2CCC1C1C2C2(Cl)C(Cl)=C(Cl)C1(Cl)C2(Cl)Cl (stereo not drawn)
SF-539 CNS
  TGI: 30.7 µM
SNB-78 CNS
  TGI: 34.8 µM
SK-MEL-2 melanoma
  TGI: 22.2 µM
LOX IMVI melanoma
  TGI: 29.1 µM
DMS 273 small cell lung
  TGI: 25.4 µM
HOP-62 NSCLC
  TGI: 29 µM
UACC-62 melanoma
  TGI: 27 µM
SF-268 CNS
  TGI: 32.6 µM
OVCAR-4 ovarian
  TGI: 59.8 µM
UACC-257 melanoma
  TGI: 27.4 µM
TK-10 renal
  TGI: 28.8 µM
MOLT-4 leukemia
  TGI: 26.4 µM
IGROV1 ovarian
  TGI: 36 µM
CAKI-1 renal
  TGI: 27 µM
NCI-H522 lung
  TGI: 25 µM
ACHN renal
  TGI: 25.9 µM
SNB-75 CNS
  TGI: 29.8 µM
HCT-116 colon
  TGI: 27.8 µM
RXF 393 renal
  TGI: 29.3 µM
HT29 colon
  TGI: 28 µM
KM20L2 colon
  TGI: 22.9 µM
LXFL 529 NSCLC
  TGI: 33.9 µM
OVCAR-5 ovarian
  TGI: 23.1 µM
EKVX NSCLC
  TGI: 24.1 µM
KM12 colon
  TGI: 27.6 µM
NCI-H226 lung
  TGI: 26.7 µM
SNB-19 CNS
  TGI: 28.6 µM
A498 renal
  TGI: 27 µM
786-0 renal
  TGI: 27.1 µM
SK-MEL-28 melanoma
  TGI: 34.3 µM
SW-620 colon
  TGI: 28.4 µM
XF 498 CNS
  TGI: 23.1 µM
U251 CNS
  TGI: 26.2 µM
HOP-92 NSCLC
  TGI: 23.3 µM
COLO 205 colon
  TGI: 28.3 µM
DMS 114 small cell lung
  TGI: 26.7 µM
SK-MEL-5 melanoma
  TGI: 26 µM
SR leukemia
  TGI: 24.6 µM
UO-31 renal
  TGI: 25.2 µM
SF-295 CNS
  TGI: 23.7 µM
RPMI-8226 leukemia
  TGI: 27.4 µM
SK-OV-3 ovarian
  TGI: 35.3 µM
OVCAR-8 ovarian
  TGI: 29.6 µM
OVCAR-3 ovarian
  TGI: 24 µM
HOP-18 NSCLC
  TGI: 33.8 µM
NCI-H460 lung
  TGI: 27.4 µM
MALME-3M melanoma
  TGI: 27.1 µM
NCI-H23 lung
  TGI: 25.8 µM
A549 NSCLC
  TGI: 25.9 µM
DLD-1 colon
  TGI: 33.3 µM
M14 melanoma
  TGI: 25.3 µM
M19-MEL melanoma
  TGI: 27.7 µM
SN12C renal
  TGI: 28.4 µM
